{
  "source": "ChEMBL document CHEMBL4387733",
  "about": "“Design, synthesis and biological evaluation of indane derived GPR40 agoPAMs” (Bioorg Med Chem Lett, 2019)",
  "key": {"[1]": {"molecular_target": "Mu-type opioid receptor (Homo sapiens) (UniProt P35372)", "sequence (P35372 whole entry)": "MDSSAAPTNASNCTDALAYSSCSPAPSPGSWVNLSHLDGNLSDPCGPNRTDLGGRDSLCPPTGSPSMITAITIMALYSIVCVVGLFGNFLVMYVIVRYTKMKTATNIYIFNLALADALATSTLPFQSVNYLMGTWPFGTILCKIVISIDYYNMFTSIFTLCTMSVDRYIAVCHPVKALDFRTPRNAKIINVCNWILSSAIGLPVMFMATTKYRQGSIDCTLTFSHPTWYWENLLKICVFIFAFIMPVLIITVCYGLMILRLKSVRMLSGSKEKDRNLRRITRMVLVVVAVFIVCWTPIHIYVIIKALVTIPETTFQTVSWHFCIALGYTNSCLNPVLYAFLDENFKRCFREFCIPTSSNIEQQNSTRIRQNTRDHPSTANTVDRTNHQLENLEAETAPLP", "assay": "Inhibition of human mu type opioid receptor at 10 uM relative to control"}, "[2]": {"molecular_target": "5-hydroxytryptamine receptor 1A (Homo sapiens) (UniProt P08908)", "assay": "Inhibition of human 5HT1A receptor at 10 uM relative to control"}, "Caspase-9 (Homo sapiens)": {"molecular_target": "Caspase-9 (Homo sapiens) (UniProt P55211)", "assay": "Inhibition of human full-length recombinant caspase 9 expressed in Escherichia coli at 10 uM using Ac-LEHD-AFC as substrate preincubated for 15 mins followed by substrate addition and measured after 60 mins by spectrofluorimetric analysis relative to control"}, "[3]": {"molecular_target": "Acetylcholinesterase (Homo sapiens) (UniProt P22303)", "assay": "Inhibition of human recombinant full length acetylcholine esterase expressed in HEK293 cells at 10 uM using acetylcholine as substrate preincubated for 15 mins followed by substrate addition measured after 20 mins by spectrophotometric analysis"}, "[4]": {"molecular_target": "Free fatty acid receptor 1 (Homo sapiens, UniProt O14842)", "assay": "Positive allosteric modulation of recombinant human GPR40 expressed in HEK293 cells assessed as increase in [3H]-myo-inositol phosphate accumulation measured after 60 mins in presence of 100% human serum by microbeta counting method", "assay_type": "functional, cell-based"}, "[5]": {"molecular_target": "5-hydroxytryptamine receptor 2A (Homo sapiens) (UniProt P28223)", "assay": "Inhibition of human 5-HT2A receptor at 10 uM relative to control"}, "Rattus norvegicus [6]": {"organism": "Rattus norvegicus", "assay": "Inhibition of rat P2Y receptor at 10 uM relative to control"}, "[7]": {"molecular_target": "D(1A) dopamine receptor (Homo sapiens) (UniProt P21728)", "sequence (P21728 whole entry)": "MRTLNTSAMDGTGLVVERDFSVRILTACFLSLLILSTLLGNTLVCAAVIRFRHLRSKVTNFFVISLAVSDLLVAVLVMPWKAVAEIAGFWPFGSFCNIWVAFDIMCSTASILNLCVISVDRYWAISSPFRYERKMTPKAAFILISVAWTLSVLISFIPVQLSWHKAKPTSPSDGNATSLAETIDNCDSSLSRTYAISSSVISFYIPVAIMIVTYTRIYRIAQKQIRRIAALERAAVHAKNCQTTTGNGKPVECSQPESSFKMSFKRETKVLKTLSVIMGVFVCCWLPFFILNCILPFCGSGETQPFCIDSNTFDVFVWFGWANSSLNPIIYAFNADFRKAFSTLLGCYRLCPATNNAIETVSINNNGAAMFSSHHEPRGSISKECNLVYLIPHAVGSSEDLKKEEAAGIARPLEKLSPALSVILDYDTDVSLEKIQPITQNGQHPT", "assay": "Inhibition of human dopamine D1 receptor at 10 uM relative to control"}, "[8]": {"molecular_target": "Prostaglandin G/H synthase 2 (Homo sapiens) (UniProt P35354)", "sequence (P35354 whole entry)": "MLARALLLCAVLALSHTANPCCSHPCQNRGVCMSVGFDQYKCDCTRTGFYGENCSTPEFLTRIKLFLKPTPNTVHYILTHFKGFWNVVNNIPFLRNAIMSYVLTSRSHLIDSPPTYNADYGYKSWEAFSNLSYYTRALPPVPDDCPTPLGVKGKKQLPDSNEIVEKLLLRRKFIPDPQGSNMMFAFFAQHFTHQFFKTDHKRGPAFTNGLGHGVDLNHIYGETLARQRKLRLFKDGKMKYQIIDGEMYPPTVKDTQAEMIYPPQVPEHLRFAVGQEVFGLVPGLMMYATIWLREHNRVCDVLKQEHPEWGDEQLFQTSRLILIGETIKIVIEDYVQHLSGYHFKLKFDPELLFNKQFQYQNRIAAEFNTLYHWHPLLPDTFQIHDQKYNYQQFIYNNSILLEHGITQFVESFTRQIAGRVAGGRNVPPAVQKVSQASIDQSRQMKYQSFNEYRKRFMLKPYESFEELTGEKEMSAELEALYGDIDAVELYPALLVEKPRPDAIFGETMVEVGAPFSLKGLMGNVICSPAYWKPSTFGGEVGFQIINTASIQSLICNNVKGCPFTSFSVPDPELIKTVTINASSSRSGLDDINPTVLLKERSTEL", "assay": "Inhibition of human recombinant cyclooxygenase COX2 expressed in baculovirus infected Sf9 cells at 10 uM using arachidonic acid as substrate preincubated for 15 mins followed by substrate addition and measured after 3 mins by ampliflu red reagent-based spectrofluorimetric method relative to control"}, "[9]": {"molecular_target": "MAP/microtubule affinity-regulating kinase 3 (Homo sapiens) (UniProt P27448)", "assay": "Inhibition of human full-length recombinant MARK3 expressed in insect cells at 10 uM using CHKtide as substrate preincubated for 15 mins followed by substrate addition and measured after 30 mins in presence of [gamma32P]ATP by scintillation counting analysis relative to control"}, "Rattus norvegicus [10]": {"system": "Rattus norvegicus", "assay": "Hypoglycemic activity in Sprague-Dawley rat assessed as reduction in blood glucose AUC at 0.3 mg/kg, po pretreated for 1 hr followed by glucose challenge by OGTT relative to control", "assay_type": "functional"}, "[11]": {"molecular_target": "5-hydroxytryptamine receptor 2B (Homo sapiens) (UniProt P41595)", "sequence (P41595 whole entry)": "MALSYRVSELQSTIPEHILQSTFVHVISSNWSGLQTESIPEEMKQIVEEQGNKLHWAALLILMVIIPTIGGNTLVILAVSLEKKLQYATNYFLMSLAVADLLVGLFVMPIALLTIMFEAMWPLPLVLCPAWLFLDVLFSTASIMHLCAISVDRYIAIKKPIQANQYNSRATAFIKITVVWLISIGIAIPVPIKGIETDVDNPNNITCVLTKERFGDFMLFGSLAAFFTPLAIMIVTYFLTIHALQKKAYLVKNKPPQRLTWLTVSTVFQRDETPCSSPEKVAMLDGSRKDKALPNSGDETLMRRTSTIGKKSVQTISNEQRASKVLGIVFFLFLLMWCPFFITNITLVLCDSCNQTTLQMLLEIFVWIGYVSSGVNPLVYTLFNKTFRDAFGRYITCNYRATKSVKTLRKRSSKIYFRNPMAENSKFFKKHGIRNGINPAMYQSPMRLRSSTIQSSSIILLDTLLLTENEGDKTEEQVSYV", "assay": "Inhibition of human 5-HT2B receptor at 10 uM relative to control"}, "[12]": {"molecular_target": "GABA-A receptor; anion channel (Rattus norvegicus) (UniProt O09028+P15431+P18506+P18508+P19969+P20236+P23574+P23576+P28471+P28473+P30191+P62813+P63079+P63138+Q91ZM7+Q9ES14)", "assay": "Inhibition of rat GABAA receptor at 10 uM relative to control", "assay_type": "protein-complex assay"}, "[13]": {"molecular_target": "Sodium-dependent serotonin transporter (Homo sapiens) (UniProt P31645)", "assay": "Inhibition of human SERT at 10 uM relative to control"}, "[14]": {"molecular_target": "Alpha-2C adrenergic receptor (Homo sapiens) (UniProt P18825)", "assay": "Inhibition of human adrenergic alpha2C receptor at 10 uM relative to control"}, "Caspase-8 (Homo sapiens)": {"molecular_target": "Caspase-8 (Homo sapiens) (UniProt Q14790)", "assay": "Inhibition of human full-length recombinant caspase 8 expressed in Escherichia coli at 10 uM using Ac-IETD-AMC as substrate preincubated for 15 mins followed by substrate addition and measured after 60 mins by spectrofluorimetric analysis relative to control"}, "[15]": {"molecular_target": "Prostaglandin E2 receptor EP3 subtype (Homo sapiens) (UniProt P43115)", "sequence (P43115 whole entry)": "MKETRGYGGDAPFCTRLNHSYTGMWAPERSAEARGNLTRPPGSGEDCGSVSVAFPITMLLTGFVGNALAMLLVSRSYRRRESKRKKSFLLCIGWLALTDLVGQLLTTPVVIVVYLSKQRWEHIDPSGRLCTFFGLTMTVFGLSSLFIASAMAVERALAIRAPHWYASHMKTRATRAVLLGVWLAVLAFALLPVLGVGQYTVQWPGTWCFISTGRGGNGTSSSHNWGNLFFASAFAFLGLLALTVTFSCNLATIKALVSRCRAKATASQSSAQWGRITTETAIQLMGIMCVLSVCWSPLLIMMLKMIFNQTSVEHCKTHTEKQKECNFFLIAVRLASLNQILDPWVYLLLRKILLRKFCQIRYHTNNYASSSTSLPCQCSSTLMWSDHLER", "assay": "Inhibition of human prostanoid EP3 receptor at 10 uM relative to control"}, "[16]": {"molecular_target": "Sodium-dependent dopamine transporter (Homo sapiens) (UniProt Q01959)", "assay": "Inhibition of human sodium dependent dopamine transporter at 10 uM relative to control"}, "[17]": {"molecular_target": "Prostaglandin G/H synthase 1 (Homo sapiens) (UniProt P23219)", "sequence (P23219 whole entry)": "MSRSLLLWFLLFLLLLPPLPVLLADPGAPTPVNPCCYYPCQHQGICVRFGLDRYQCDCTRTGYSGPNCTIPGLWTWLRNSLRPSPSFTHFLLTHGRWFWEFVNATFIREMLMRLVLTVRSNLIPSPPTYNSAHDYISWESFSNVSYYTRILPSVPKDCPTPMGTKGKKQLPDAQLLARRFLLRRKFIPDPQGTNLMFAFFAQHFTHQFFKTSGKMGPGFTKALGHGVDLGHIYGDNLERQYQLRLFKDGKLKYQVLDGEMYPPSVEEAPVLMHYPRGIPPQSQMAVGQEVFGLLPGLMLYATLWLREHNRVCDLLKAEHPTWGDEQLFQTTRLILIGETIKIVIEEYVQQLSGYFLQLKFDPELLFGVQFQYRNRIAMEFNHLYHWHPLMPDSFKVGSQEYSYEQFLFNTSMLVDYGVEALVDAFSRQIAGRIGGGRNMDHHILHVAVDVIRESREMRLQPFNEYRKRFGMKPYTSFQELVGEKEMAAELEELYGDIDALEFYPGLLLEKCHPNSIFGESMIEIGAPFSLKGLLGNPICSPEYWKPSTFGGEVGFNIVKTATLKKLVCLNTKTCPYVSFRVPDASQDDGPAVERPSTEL", "assay": "Inhibition of human recombinant cyclooxygenase COX1 expressed in baculovirus infected Sf9 cells at 10 uM using arachidonic acid as substrate preincubated for 15 mins followed by substrate addition and measured after 3 mins by ampliflu red reagent-based spectrofluorimetric method relative to control"}, "[18]": {"molecular_target": "Mitogen-activated protein kinase 3 (Homo sapiens) (UniProt P27361)", "assay": "Inhibition of human recombinant full-length ERK1 expressed in Escherichia coli at 10 uM using myelin basic protein as substrate preincubated for 30 mins followed by substrate addition and measured after 30 mins in the presence of [gamma32P]ATP by scintillation counting method relative to control"}, "[19]": {"molecular_target": "D(2) dopamine receptor (Homo sapiens) (UniProt P14416)", "assay": "Inhibition of human dopamine D2s receptor at 10 uM relative to control"}, "[20]": {"molecular_target": "Alpha-2A adrenergic receptor (Homo sapiens) (UniProt P08913)", "sequence (P08913 whole entry)": "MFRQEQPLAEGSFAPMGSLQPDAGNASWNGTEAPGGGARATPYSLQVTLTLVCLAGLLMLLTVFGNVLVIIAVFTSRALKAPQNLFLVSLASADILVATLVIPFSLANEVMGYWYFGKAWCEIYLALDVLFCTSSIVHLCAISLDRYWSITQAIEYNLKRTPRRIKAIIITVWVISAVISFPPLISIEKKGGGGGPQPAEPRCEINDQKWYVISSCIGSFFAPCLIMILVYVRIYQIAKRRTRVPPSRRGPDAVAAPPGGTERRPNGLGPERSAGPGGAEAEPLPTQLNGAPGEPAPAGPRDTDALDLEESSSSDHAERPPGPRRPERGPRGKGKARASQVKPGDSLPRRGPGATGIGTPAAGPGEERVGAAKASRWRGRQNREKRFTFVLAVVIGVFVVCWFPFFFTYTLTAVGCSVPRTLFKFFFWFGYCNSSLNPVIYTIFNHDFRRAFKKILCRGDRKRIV", "assay": "Inhibition of human adrenergic alpha2A receptor at 10 uM relative to control"}, "[21]": {"molecular_target": "Histamine H1 receptor (Homo sapiens) (UniProt P35367)", "sequence (P35367 whole entry)": "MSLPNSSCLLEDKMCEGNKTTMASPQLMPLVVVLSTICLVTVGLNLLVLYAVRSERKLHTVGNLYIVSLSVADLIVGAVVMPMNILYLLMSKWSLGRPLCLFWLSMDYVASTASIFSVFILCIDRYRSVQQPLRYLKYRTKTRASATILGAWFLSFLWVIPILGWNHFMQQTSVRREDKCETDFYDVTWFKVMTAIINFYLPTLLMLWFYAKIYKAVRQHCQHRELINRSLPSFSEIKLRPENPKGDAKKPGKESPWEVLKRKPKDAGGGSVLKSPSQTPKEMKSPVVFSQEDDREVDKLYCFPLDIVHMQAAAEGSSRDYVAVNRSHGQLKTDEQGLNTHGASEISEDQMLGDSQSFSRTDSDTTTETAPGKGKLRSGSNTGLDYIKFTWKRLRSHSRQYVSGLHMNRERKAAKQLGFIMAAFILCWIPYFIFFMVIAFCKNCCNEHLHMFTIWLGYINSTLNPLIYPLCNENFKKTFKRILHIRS", "assay": "Inhibition of human histamine H1 receptor at 10 uM relative to control"}, "[22]": {"molecular_target": "Histamine H2 receptor (Homo sapiens) (UniProt P25021)", "assay": "Inhibition of human histamine H2 receptor at 10 uM relative to control"}, "[23]": {"molecular_target": "Histamine H4 receptor (Homo sapiens) (UniProt Q9H3N8)", "assay": "Inhibition of human histamine H4 receptor at 10 uM relative to control"}, "[24]": {"assay": "Solubility of the compound in FASSIF", "assay_type": "physicochemical"}, "[25]": {"molecular_target": "Muscarinic acetylcholine receptor M3 (Homo sapiens) (UniProt P20309)", "assay": "Inhibition of human muscarinic M3 receptor at 10 uM relative to control"}, "[26]": {"molecular_target": "B1 bradykinin receptor (Homo sapiens) (UniProt P46663)", "sequence (P46663 whole entry)": "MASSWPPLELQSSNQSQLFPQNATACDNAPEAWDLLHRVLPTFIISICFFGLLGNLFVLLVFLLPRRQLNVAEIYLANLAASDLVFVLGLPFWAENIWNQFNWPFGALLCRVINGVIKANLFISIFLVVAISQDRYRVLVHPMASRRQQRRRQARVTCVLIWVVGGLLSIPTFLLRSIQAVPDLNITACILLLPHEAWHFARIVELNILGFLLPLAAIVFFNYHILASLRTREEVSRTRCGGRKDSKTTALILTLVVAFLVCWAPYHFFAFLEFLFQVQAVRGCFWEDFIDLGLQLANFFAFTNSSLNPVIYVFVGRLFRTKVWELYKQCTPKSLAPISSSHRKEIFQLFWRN", "assay": "Displacement of [3H]Kallidin(des-Arg10,Leu9) from human recombinant bradykinin B1 receptor expressed in CHOK1 cells at 10 uM after 60 mins by scintillation counting assay relative to control", "assay_type": "cell-based"}, "[27]": {"molecular_target": "Kappa-type opioid receptor (Homo sapiens) (UniProt P41145)", "assay": "Inhibition of human kappa type opioid receptor at 10 uM relative to control"}, "Mus musculus": {"organism": "Mus musculus", "assay": "Glucose lowering effect in GPR40 knockout mouse assessed as increase in GLP-1 level", "assay_type": "functional, organism-based"}, "[28]": {"molecular_target": "Prostaglandin E2 receptor EP1 subtype (Homo sapiens) (UniProt P34995)", "assay": "Inhibition of human prostanoid EP1 receptor at 10 uM relative to control"}, "[29]": {"molecular_target": "Sodium-dependent noradrenaline transporter (Homo sapiens) (UniProt P23975)", "sequence (P23975 whole entry)": "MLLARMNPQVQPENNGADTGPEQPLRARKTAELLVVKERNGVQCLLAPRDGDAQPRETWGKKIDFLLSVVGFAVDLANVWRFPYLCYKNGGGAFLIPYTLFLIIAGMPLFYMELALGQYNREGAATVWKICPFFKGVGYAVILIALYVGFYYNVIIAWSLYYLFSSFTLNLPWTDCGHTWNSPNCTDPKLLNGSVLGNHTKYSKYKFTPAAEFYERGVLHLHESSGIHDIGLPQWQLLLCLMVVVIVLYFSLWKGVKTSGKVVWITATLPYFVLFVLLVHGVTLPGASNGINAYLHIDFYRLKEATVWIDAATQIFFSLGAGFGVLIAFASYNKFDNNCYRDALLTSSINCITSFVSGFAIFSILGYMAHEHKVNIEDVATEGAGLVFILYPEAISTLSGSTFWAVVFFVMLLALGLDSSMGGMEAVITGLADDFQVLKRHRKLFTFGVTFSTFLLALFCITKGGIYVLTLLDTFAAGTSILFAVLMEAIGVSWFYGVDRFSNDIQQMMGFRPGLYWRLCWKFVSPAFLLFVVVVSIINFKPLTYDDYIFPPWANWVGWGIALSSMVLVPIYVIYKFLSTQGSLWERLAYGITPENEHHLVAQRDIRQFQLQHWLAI", "assay": "Inhibition of human sodium dependent noradrenaline transporter at 10 uM relative to control"}, "[30]": {"molecular_target": "5-hydroxytryptamine receptor 2C (Homo sapiens) (UniProt P28335)", "assay": "Inhibition of human 5-HT2C receptor at 10 uM relative to control"}, "[31]": {"molecular_target": "Cysteinyl leukotriene receptor 2 (Homo sapiens) (UniProt Q9NS75)", "assay": "Displacement of [3H]LTD4 from human full-length recombinant cysteinyl leukotriene type-2 receptor expressed in HEK293 cells at 10 uM measured after 60 mins by scintillation counting method relative to control", "assay_type": "cell-based"}, "[32]": {"molecular_target": "Cathepsin G (Homo sapiens) (UniProt P08311)", "assay": "Inhibition of human neutrophil cathepsin G at 10 uM using Suc-Ala-Ala-Pro-Phe-AMC as substrate preincubated for 15 mins followed by substrate addition and measured after 30 mins by spectrofluorimetric analysis relative to control"}},
  "note": "Active and inactive are the calls of the source. The rule behind the calls is not given here.",
  "data": [
    {"smiles": "COc1ccc(F)c(-c2ccc(COc3cccc([C@@H](CC(=O)O)C4CC4)c3)cc2C2=CCCC2(C)C)c1", "values": [
      {"measurement": "inhibition", "setting": "[1]", "result": 99, "unit": "%"},
      {"measurement": "inhibition", "setting": "[2]", "result": 91, "unit": "%"},
      {"measurement": "inhibition", "setting": "Caspase-9 (Homo sapiens)", "result": 89, "unit": "%"},
      {"measurement": "inhibition", "setting": "[3]", "result": 52, "unit": "%"},
      {"measurement": "fEC50", "setting": "[4]", "result": 0.06, "unit": "nM"},
      {"measurement": "inhibition", "setting": "[5]", "result": 89, "unit": "%"},
      {"measurement": "inhibition", "setting": "Rattus norvegicus [6]", "result": 80, "unit": "%"},
      {"measurement": "inhibition", "setting": "[7]", "result": 78, "unit": "%"},
      {"measurement": "inhibition", "setting": "[8]", "result": 77, "unit": "%"},
      {"measurement": "inhibition", "setting": "[9]", "result": 81, "unit": "%"},
      {"measurement": "Activity", "setting": "Rattus norvegicus [10]", "result": "Active"},
      {"measurement": "inhibition", "setting": "[11]", "result": 88, "unit": "%"},
      {"measurement": "inhibition", "setting": "[12]", "result": 60, "unit": "%"},
      {"measurement": "inhibition", "setting": "[13]", "result": 70, "unit": "%"},
      {"measurement": "inhibition", "setting": "[14]", "result": 99, "unit": "%"},
      {"measurement": "inhibition", "setting": "Caspase-8 (Homo sapiens)", "result": 65, "unit": "%"},
      {"measurement": "inhibition", "setting": "[15]", "result": 77, "unit": "%"},
      {"measurement": "inhibition", "setting": "[16]", "result": 97, "unit": "%"},
      {"measurement": "inhibition", "setting": "[17]", "result": 67, "unit": "%"},
      {"measurement": "inhibition", "setting": "[18]", "result": 96, "unit": "%"},
      {"measurement": "inhibition", "setting": "[19]", "result": 66, "unit": "%"},
      {"measurement": "inhibition", "setting": "[20]", "result": 99, "unit": "%"},
      {"measurement": "inhibition", "setting": "[21]", "result": 97, "unit": "%"},
      {"measurement": "inhibition", "setting": "[22]", "result": 66, "unit": "%"},
      {"measurement": "inhibition", "setting": "[23]", "result": 82, "unit": "%"},
      {"measurement": "solubility", "setting": "[24]", "result": 166, "unit": "µM"},
      {"measurement": "inhibition", "setting": "[25]", "result": 60, "unit": "%"},
      {"measurement": "inhibition", "setting": "[26]", "result": 63, "unit": "%"},
      {"measurement": "inhibition", "setting": "[27]", "result": 97, "unit": "%"},
      {"measurement": "Activity", "setting": "Mus musculus", "result": "Active"},
      {"measurement": "inhibition", "setting": "[28]", "result": 95, "unit": "%"},
      {"measurement": "inhibition", "setting": "[29]", "result": 95, "unit": "%"},
      {"measurement": "inhibition", "setting": "[30]", "result": 94, "unit": "%"},
      {"measurement": "inhibition", "setting": "[31]", "result": 61, "unit": "%"},
      {"measurement": "inhibition", "setting": "[32]", "result": 53, "unit": "%"}
    ]}
  ]
}
